SMILES strings stand for the structures.

A short description of assay [1]: Blood pressure in hypertensive, hypercholesterolemic patients (3x3 cross-over trial). It is filed as in vivo, human. The settings on record: manidipine 20 mg, simvastatin 40 mg or fixed combination, end of 12 week treatment. The protocol: (§1) The aim of this study was to evaluate the effect of the manidipine-simvastatin combination on plasma tissue plasminogen activator (t-PA) and inhibitor (PAI-1) activity, on plasma intercellular adhesion molecule type-1 (ICAM-1) and on serum C-reactive protein (CRP) in hypertensive, hypercholesterolemic patients.
(§2) After 4 week placebo run-in period, 30 hypertensive hypercholesterolemic patients were randomized to a manidipine 20 mg or simvastatin 40 mg or a manidipine-simvastatin fixed combination treatment, according to 3×3 cross-over design; each treatment had 12 week duration.
(§3) The last day of the placebo run-in period and of each treatment period blood pressure was measured and a venous blood sample was taken (at the same hour in the morning) to evaluate plasma t-PA and PAI-1 activity, TC plasma, ICAM-1 and CRP.

In assay [2] the test system is plasma tissue plasminogen activator (t-PA). The experiment in a line: Plasma t-PA activity in hypertensive, hypercholesterolemic patients. Type of assay: in vivo, human. As to conditions: for t-PA: plasma activity, patients, end of 12 week treatment. The protocol:
as §1, §2, §3

In another assay the test system is inhibitor (PAI-1). In words: Plasma PAI-1 activity in hypertensive, hypercholesterolemic patients. Type of assay: in vivo, human. As to conditions: for change in PAI-1 activity vs placebo: 12 week treatment; for PAI-1: plasma activity, patients, end of 12 week treatment. As to the method:
as §1, §2, §3

The next assay deals with total cholesterol. The experiment in a line: Total cholesterol (TC) in hypertensive, hypercholesterolemic patients. The settings on record: for TC: patients, end of 12 week treatment. Type of assay: in vivo, human. The protocol: as §3
Assay [3] concerns plasma intercellular adhesion molecule type-1 (ICAM-1). The experiment in a line: Plasma ICAM-1 in hypertensive, hypercholesterolemic patients. Type of assay: in vivo, human. As to conditions: for change in ICAM-1 mean value vs placebo: 12 week treatment; for ICAM-1: plasma, patients, end of 12 week treatment. As to the method:
as §1, §2, §3

Assay [4] deals with serum C-reactive protein (CRP). The experiment in a line: Serum CRP in hypertensive, hypercholesterolemic patients. It is filed as in vivo, human. The settings on record: end of 12 week treatment. The protocol:
as §1, §2, §3

Assay [5] deals with perfused rat heart preparations submitted to ischemia-reperfusion. In words: Myocardial ischemia-reperfusion damage, perfused hearts from orally treated rats. It is filed as in vivo, Male Wistar rats. The settings on record: oral gavage once a day for 5 days; manidipine 1 and 3 mg/kg, simvastatin 1 mg/kg, alone or combined. As to the method:
The hearts were excised from rats orally treated for 5 consecutive days with manidipine and simvastatin alone or in combination. […] Data are means±SEM of 8 hearts per group. *P<0.05, **P<0.01, ***P<0.001 vs control; #P<0.01 vs simvastatin alone.
The aim of this study was to evaluate the protective effects of the manidipine-simvastatin combination against myocardial ischemia-reperfusion damage in the rat.
The study was performed according to a method described previously (Rossoni G et al Pharmacol Exp Ther. 2003 307(2), 633-9).
Male Wistar rats were randomly divided into six groups (n=6-8 rats per group). Manidipine (1 mg/kg and 3 mg/kg) simvastatin (1 mg/kg) were administered alone or in combination by oral gavage once a day for five consecutive days.
The following parameters were determined:
i) the left ventricular end-diastolic pressure (LVEDP) and the left ventricular developed pressure (LVDevP; peak left ventricular systolic pressure minus LVEDP);
ii) the activities of creatine kinase (CK) and lactate dehydrogenase (LDH) in the heart perfusate.
The data were expressed as mean±S.E.M (standard error of the mean).

In assay [6] the test system is ischemic-reperfused myocardium. As to conditions: isolated rat hearts; simvastatin: normocholesterolemic rat hearts; cited from earlier work.
Setting [7] is: change vs placebo, 12 week treatment.

For `COC(=O)C1=C(C)NC(C)=C(C(=O)OCCN2CCN(C(c3ccccc3)c3ccccc3)CC2)C1c1cccc([N+](=O)[O-])c1` (racemic) [Manidipine, (±)-1,4-dihydro-2,6-dimethyl-4-(3-nitrophenyl)-3,5-pyridinedicarboxylic acid 2-[4-(diphenylmethyl)-1-piperazinyl]ethyl methyl ester], in assay [1], the DBP was determined as 84.1 ± 4.8 mmHg and the SBP stood at 140.5 ± 10.7 mmHg. For the same molecule, the “change in t-PA activity vs placebo” value in assay [2] (setting [7]) is “+0.22 U/ml”. Besides, the t-PA in assay [2] turned out to be 0.71 ± 0.19 U/ml. Further, in the assay on inhibitor (PAI-1), the “change in PAI-1 activity vs placebo” value is given as “did not affect” and the PAI-1 was determined as 24.9 ± 12.6 U/ml. Also, the TC in the assay on total cholesterol stood at 253.8 ± 29.6 mg/dL. Further, in assay [3], the “change in ICAM-1 mean value vs placebo” value is -17.6 ng/mL and the ICAM-1 is 220.2 ± 29.8 ng/mL. The CRP in assay [4] was determined as 0.34 ± 0.20 mg/dL. For the same molecule, the “rise in LVEDP during ischemia and reperfusion” value in assay [5] is “significantly reduced according to the dose used”. Also, the “protection of ischemic-reperfused myocardium” value in assay [6] is reported as “relevant cardioprotection”.
Consider `CCC(C)(C)C(=O)O[C@H]1C[C@@H](C)C=C2C=C[C@H](C)[C@H](CC[C@@H]3C[C@@H](O)CC(=O)O3)[C@H]21` [Simvastatin, simvastatin], for which, in assay [1], the DBP came to 98.2 ± 6.2 mmHg and the SBP amounted to 155.4 ± 11.9 mmHg. Moreover, in assay [2], the t-PA was 0.51 ± 0.14 U/ml. Moreover, in the assay on inhibitor (PAI-1), the “change in PAI-1 activity vs placebo” value was −8.5 U/ml and the PAI-1 is given as 16.1 ± 7.3 U/ml. Also, in the assay on total cholesterol (setting [7]), the “change in total cholesterol mean value vs placebo” value is -52.7 mg/dL. The molecule also returned a TC with total cholesterol of 202.2 ± 26.4 mg/dL. Further, in assay [3], the “change in ICAM-1 mean value vs placebo” value was -30.4 ng/mL and the ICAM-1 stood at 207.4 ± 26 ng/mL. The CRP in assay [4] was 0.16 ± 0.12 mg/dL.
For `COC(=O)C1=C(C)NC(C)=C(C(=O)OC2CCCN(Cc3ccccc3)C2)C1c1cccc([N+](=O)[O-])c1` (centres unmarked) [benidipine], the “protection of ischemic-reperfused myocardium” value in assay [6] is given as “relevant cardioprotection”.

The record behind these values is patent US20100022556A1, “Therapeutic combinations comprising a long acting dihydropyridine calcium-channel blocker and a statin” (CHIESI FARMACEUTICI S.P.A., priority 2005, published 2010).
